Results published in patent US20240374546A1, “USES AND METHODS FOR PROMOTING INCREASED MITOCHONDRIAL MASS AND FUNCTION” (Brightseed, Inc., priority 2022, published 2024).

What was measured:
[1] = Oil red O staining of liver sections; assay type: in vivo, mouse; conditions: HFD+NCT vs HFD, 10 weeks
Protocol: Oil red O staining was performed as described previously (34). Slides containing frozen liver tissue sections from mice were air dried for 10-20 min followed by rehydration in distilled water. Sections were immersed in absolute propylene glycol (Cat #151957, MP Biomedicals, LLC, USA) for 2 min followed by 0.5% in Oil red O solution (Cat #K043, Poly Scientific R&D, USA) for 2 hours. Slides were then differentiated in 85% propylene glycol solution, washed with dH2O for 2 hours, and mounted using glycerin jelly mounting medium. All slides were scanned at a magnification of 20× using the Aperio Scanscope FL system (Aperio Technologies Inc., Vista, CA, USA). The liver area stained with oil red O was measured using image J software as described, with some modifications as follow, Oil red O-stained liver images were opened in Image J software. Using the Analyze>Set Scale command, the scale bar of the images was set to 200 um. RGB images were then converted into gray scale images using the Image>Type>RGB Stack command and were split into red, blue and green channels. Using the Image >Adjust>Threshold command, the threshold was manually set to highlight the Oil red O stained lipid droplets in the green channel. […] Fold change was calculated by normalizing the values to images from mice fed normal chow.

VDAC1 = experiment: VDAC-1 immunostaining of liver sections; assay type: in vivo, mouse; conditions: HFD+NCT vs HFD
Protocol: Frozen liver sections were permeabilized using 0.3% Triton-X and incubated in antigen retrieval solution (Antigen retrieval citrate, Biogenex) at sub-boiling temperature for 10 min. Subsequently, sections were incubated with blocking buffer containing 5% normal donkey serum (Jackson Immuno Research) followed by incubation overnight at 4° C. with mouse anti-HNF4α monoclonal antibody (1:800, Cat #PP-H1415-00, R&D Systems), rabbit polyclonal anti-VDAC antibody (1:400, cat #PA1-954A, Invitrogen) and cleaved caspase3 antibody (1:500, cat #9664, Cell Signaling). Sections were washed and incubated for 1 hour at room temperature with anti-mouse secondary antibody coupled with Alexa fluor 488 (1:400, Invitrogen) and antirabbit secondary antibody coupled with rhodamine red. Nuclei were visualized by counterstaining with DAPI (40,6-diamidino-2-phenylindole, Sigma Aldrich). Slides were mounted using fluorescence mounting medium and images were obtained at 40× magnification using an Olympus IX71 fluorescence microscope. Fluorescence intensity of HNF4α-stained nuclei and VDAC stained mitochondria was calculated using MetaMorph TL software (version 7.6.5.0, Olympus). Fold change was calculated by normalizing to values from mice fed NC.

PPARGC1A (PGC1α) = experiment: Western blot, mouse liver, PPARGC1A; assay type: in vivo; conditions: ten weeks of oral NCT
Protocol: Mouse liver extracts were prepared by incubation in RIPA buffer (Invitrogen) containing protease inhibitors (Calbiochem, San Diego, CA). Protein was quantified by BCA assay (Thermo Scientific). Protein ([…] for cytochrome C) was separated on 12% or 16% Tri-Glycine gels (Invitrogen) and transferred to Immobilon P membrane (0.2 μm pore size, Millipore). After 1 hour in phosphate-buffered saline-Tween (PBST) with 3% milk, membranes were incubated with antibodies to PPARGC1A(PGC1α) (Cat #NBP1-04676, Novus, 1:1000), SDHA XP (Cat #11998, Cell Signaling 1:1000), or Cytochrome C (Cat #4280, Cell Signaling 1:500), followed by secondary antibody conjugated to horseradish peroxidase (1:5000, Jackson Immune or Cell Signaling). […] After detection, membrane was incubated with Ponceau S solution (Sigma) for 1 hr for normalization to loaded protein.

SDHA mRNA = experiment: qPCR mouse liver, SDHA mRNA; assay type: in vivo; conditions: HFD+NCT vs HFD
Protocol: (§1) Total RNA was isolated from liver tissues and primary human hepatocytes using Trizol (Invitrogen). cDNA was amplified using 3 μg of total RNA using qScript cDNA SuperMix (Quanta BioSciences, Beverly, MA, USA). Quantitative real time PCR (RT-PCR) analysis was performed using SYBR® Select Master Mix (Applied Biosystems) and an ABI 7900HT thermal cycler (Applied Biosystems, Thermo Fisher Scientific). Ct values were normalized to 18s rRNA and are expressed as fold change over samples from mice fed NC or cultured human hepatocytes without NCT.

PPARGC1A mRNA = experiment: qPCR mouse liver, PPARGC1A mRNA; assay type: in vivo; conditions: ten weeks of oral NCT
Protocol: as §1

Sirt1 mRNA = experiment: qPCR mouse liver, Sirtuin1 mRNA; assay type: in vivo; conditions: HFD+NCT vs HFD
Protocol: as §1

Sirt3 mRNA = experiment: qPCR mouse liver, Sirtuin3 mRNA; assay type: in vivo; conditions: HFD+NCT vs HFD
Protocol: as §1

IL-1P mRNA = experiment: qPCR mouse liver, IL-1β mRNA; assay type: in vivo; conditions: HFD+NCT vs HFD
Protocol: as §1

nitric oxide (NO) = experiment: Nitric oxide assay, mouse liver; assay type: in vivo; conditions: HFD+NCT vs HFD, normalized to liver weight
Protocol: T6PNE cells were maintained in RPMI (5.5 mM glucose, Corning) supplemented with 10% fetal bovine serum (FBS, Sigma-Aldrich) and 1% penicillin-streptomycin (pen-strep, Gibco) in 5% CO2 at 37° C. Cells were treated with […] palmitate plus 0 or 15 μM NCT for 3 days in 10 cm plates and harvested with 500 μl PBS. For tissue specimens, snap frozen mouse liver was weighed and homogenized with PBS. NO was measured with the QuantiChrom Nitric Oxide Assay kit (D2NO-100, BioAssay Systems). Homogenized samples (150 μl) were processed for deproteination with 8 μl ZnSO4 and 8 μl NaOH. For normalization, an aliquot of samples from T6PNE cells was taken for BCA assay before deproteination. Samples and standard from kit incubated with reagents for 20 min at 60° C. and measured OD 540 nm.

[2] = Subcutaneous delivery of NCT to DIO mice; assay type: in vivo, mouse; conditions: 2 weeks
Protocol: 12-week-old C57BL/6J DIO male mice were purchased from Jackson laboratory (cat #380050) and were fed with high fat diet (Research Diets, cat #D12492 60 kcal % fat). […] 14 week old mice were injected subcutaneously using sterile insulin syringes filled with DMSO or NCT (200 mg/kg of mouse body weight) bid for 2 weeks. For oral gavage, 14-week-old C57BL/6J DIO male mice were fed by oral gavage using a feeding needle attached to a sterile 1 ml syringe filled with 200 μL of methyl cellulose (MC, vehicle control) or 200 μL of NCT (200 mg/kg) dissolved in methyl cellulose twice a day for 2 weeks. […] For analysis all mice were sacrificed after 2 weeks of treatment.

PPARGC1A (PGC1α) mRNA = experiment: RNA-seq of livers of mice treated for 2 weeks with NCT; assay type: in vivo, mouse; conditions: livers of mice treated for 2 weeks (GEO 174848)
Text: The ability of NCT to increase mitochondrial mass raised the question of the mechanism by which that occurred. […] PPARGC1A plays an important role in mitochondrial biogenesis but is not known to be regulated by HNF4α. […]

In the case of `O=C(/C=C/c1ccc(O)c(O)c1)NCCc1ccc(O)cc1` [NCT, N-transcaffeoyltyramine], the “Oil Red O staining of liver” value [1] is reported as “decreased Oil Red O staining”, the “VDAC1 expression (HFD-induced decrease)” value (VDAC1) is reported as “substantial reversal” and the “PPARGC1A protein in mouse liver” value (PPARGC1A (PGC1α)) is reported as “increased”. The “SDHA mRNA in mouse liver” value (SDHA mRNA) was “increased”, the “PPARGC1A mRNA in mouse liver” value (PPARGC1A mRNA) was “increased” and the “Sirt1 mRNA in mouse liver (effect of HFD)” value (Sirt1 mRNA) was “almost completely reversed”. For the same compound, the “Sirt3 mRNA in mouse liver (effect of HFD)” value (Sirt3 mRNA) was “almost completely reversed”, the “ILI p expression (FIG. 5C, mouse liver)” value (IL-1P mRNA) was “not significantly changed” and the “nitric oxide (NO) in liver” value (nitric oxide (NO)) was “decreased”. The “liver color after subcutaneous NCT” value ([2]; 200 mg/kg bid, vs DMSO) was “No difference in liver color”, the “outcome of subcutaneous delivery” value ([2]; 200 mg/kg, 2 doses per day, subcutaneous) was “compound precipitation” and the “increase in PPARGC1A (PGC1α) mRNA” value (PPARGC1A (PGC1α) mRNA) was “approximately 6 fold”.
